System: PC3 cells
Test: NAMPT Cell Proliferation Assay
Type: cell-based
Conditions: 5 days incubation, cell viability by Cell Titer Glo
In short: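 Seed PC3 at 500 cells/well (RPMI, 10% HI-FBS), attach overnight; add compound, 10-fold series 10 μM → 1×10^−5 μM; incubate 5 d, 37° C/5% CO2; luminescent viability readout; fit % inhibition sigmoidally for IC50.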

SMILES	IC50 (Homo sapiens, PC-3, 120 h)	IC50
CC(C)n1ccc(CC(=O)N2CCC(c3ccc(C(=O)NCc4ccn5ccnc5c4)cc3)CC2)n1 [Example 1097, N-(imidazo[1,2-a]pyridin-7-ylmethyl)-4-(1-{[1-(propan-2-yl)-1H-pyrazol-3-yl]acetyl}piperidin-4-yl)benzamide]	64.7 nM	
O=C(NCc1ccn2ccnc2c1)c1ccc(C2CCN(C(=O)c3coc4ccccc34)CC2)cc1 [Example 1098, 4-[1-(1-benzofuran-3-ylcarbonyl)piperidin-4-yl]-N-(imidazo[1,2-a]pyridin-7-ylmethyl)benzamide]	9.55 nM	
Cc1nc(C(=O)N2CCC(c3ccc(C(=O)NCc4ccn5ccnc5c4)cc3)CC2)c2n1CCCC2 [Example 1099, Example 1099 N-(imidazo[1,2-a]pyridin-7-ylmethyl)-4-{1-[(3-meth-5,6,7,8-tetrahydroimidazo[1,5-a]pyridin-1-yl)carbonyl]piperidin-4-yl}benzamide]		15.6 nM
COc1cc(C(=O)N2CCC(c3ccc(C(=O)NCc4ccn5ccnc5c4)cc3)CC2)ncc1C [Example 1100, N-(imidazo[1,2-a]pyridin-7-ylmethyl)-4-{1-[(4-methoxy-5-methylpyridin-2-yl)carbonyl]piperidin-4-yl}benzamide]	8.7 nM	
O=C(NCc1ccn2ccnc2c1)c1ccc(C2CCN(C(=O)c3ccnn3C3CCCC3)CC2)cc1 [Example 1101, 4-{1-[(1-cyclopentyl-1H-pyrazol-5-yl)carbonyl]piperidin-4-yl}-N-(imidazo[1,2-a]pyridin-7-ylmethyl)benzamide]	2.06 nM	
O=C(NCc1ccn2ccnc2c1)c1ccc(C2CCN(C(=O)c3scnc3Cl)CC2)cc1 [Example 1102, 4-{1-[(4-chloro-1,3-thiazol-5-yl)carbonyl]piperidin-4-yl}-N-(imidazo[1,2-a]pyridin-7-ylmethyl)benzamide]	1.77 nM	
N#Cc1ccsc1C(=O)N1CCC(c2ccc(C(=O)NCc3ccn4ccnc4c3)cc2)CC1 [Example 1103, 4-{1-[(3-cyanothiophen-2-yl)carbonyl]piperidin-4-yl}-N-(imidazo[1,2-a]pyridin-7-ylmethyl)benzamide]	4.24 nM	
CC(C)c1ncncc1C(=O)N1CCC(c2ccc(C(=O)NCc3ccn4ccnc4c3)cc2)CC1 [Example 1104, N-(imidazo[1,2-a]pyridin-7-ylmethyl)-4-(1-{[4-(propan-2-yl)pyrimidin-5-yl]carbonyl}piperidin-4-yl)benzamide]	6.96 nM	
CCCc1c(C(=O)N2CCC(c3ccc(C(=O)NCc4ccn5ccnc5c4)cc3)CC2)cnn1C [Example 1105, N-(imidazo[1,2-a]pyridin-7-ylmethyl)-4-{1-[(1-methyl-5-propyl-1H-pyrazol-4-yl)carbonyl]piperidin-4-yl}benzamide]	2.6 nM	
CC(C(=O)N1CCC(c2ccc(C(=O)NCc3ccn4ccnc4c3)cc2)CC1)n1ccc(C2CC2)n1 (stereo not drawn) [Example 1106, 4-{1-[2-(3-cyclopropyl-1H-pyrazol-1-yl)propanoyl]piperidin-4-yl}-N-(imidazo[1,2-a]pyridin-7-ylmethyl)benzamide]	27.5 nM	
CC1Cc2cccc(C(=O)N3CCC(c4ccc(C(=O)NCc5ccn6ccnc6c5)cc4)CC3)c2O1 (stereo not drawn) [Example 1107, N-(imidazo[1,2-a]pyridin-7-ylmethyl)-4-{1-[(2-methyl-2,3-dihydro-1-benzofuran-7-yl)carbonyl]piperidin-4-yl}benzamide]	2.26 nM	
CC(C)c1nc(C(=O)N2CCC(c3ccc(C(=O)NCc4ccn5ccnc5c4)cc3)CC2)cs1 [Example 1108, N-(imidazo[1,2-a]pyridin-7-ylmethyl)-4-(1-{[2-(propan-2-yl)-1,3-thiazol-4-yl]carbonyl}piperidin-4-yl)benzamide]	20.1 nM	
Cc1cc(C(=O)N2CCC(c3ccc(C(=O)NCc4ccn5ccnc5c4)cc3)CC2)nn1C(F)F [Example 1109, 4-(1-{[1-(difluoromethyl)-5-methyl-1H-pyrazol-3-yl]carbonyl}piperidin-4-yl)-N-(imidazo[1,2-a]pyridin-7-ylmethyl)benzamide]	9.21 nM	
N#Cc1csc(C(=O)N2CCC(c3ccc(C(=O)NCc4ccn5ccnc5c4)cc3)CC2)c1 [Example 1110, 4-{1-[(4-cyanothiophen-2-yl)carbonyl]piperidin-4-yl}-N-(imidazo[1,2-a]pyridin-7-ylmethyl)benzamide]	111 nM	
O=C(NCc1ccn2ccnc2c1)c1ccc(C2CCN(C(=O)c3cc4ccccn4n3)CC2)cc1 [Example 1111, N-(imidazo[1,2-a]pyridin-7-ylmethyl)-4-[1-(pyrazolo[1,5-a]pyridin-2-ylcarbonyl)piperidin-4-yl]benzamide]	62 nM	
O=C(NCc1ccn2ccnc2c1)c1ccc(C2CCN(C(=O)c3ccc4occc4c3)CC2)cc1 [Example 1112, 4-[1-(1-benzofuran-5-ylcarbonyl)piperidin-4-yl]-N-(imidazo[1,2-a]pyridin-7-ylmethyl)benzamide]	16.4 nM	
CC(C)c1nc(C(=O)N2CCC(c3ccc(C(=O)NCc4ccn5ccnc5c4)cc3)CC2)co1 [Example 1113, N-(imidazo[1,2-a]pyridin-7-ylmethyl)-4-(1-{[2-(propan-2-yl)-1,3-oxazol-4-yl]carbonyl}piperidin-4-yl)benzamide]	23.1 nM	

SMILES	IC50 (Homo sapiens, PC-3, 120 h)	IC50
COc1ncc(C)cc1C(=O)N1CCC(c2ccc(C(=O)NCc3ccn4ccnc4c3)cc2)CC1 [Example 1114, N-(imidazo[1,2-a]pyridin-7-ylmethyl)-4-{1-[(2-methoxy-5-methylpyridin-3-yl)carbonyl]piperidin-4-yl}benzamide]	21.8 nM	
COc1ccc(C(=O)N2CCC(c3ccc(C(=O)NCc4ccn5ccnc5c4)cc3)CC2)nc1OC [Example 1115, 4-{1-[(5,6-dimethoxypyridin-2-yl)carbonyl]piperidin-4-yl}-N-(imidazo[1,2-a]pyridin-7-ylmethyl)benzamide]	21.2 nM	
Cn1cc2c(C(=O)N3CCC(c4ccc(C(=O)NCc5ccn6ccnc6c5)cc4)CC3)cccc2n1 [Example 1116, N-(imidazo[1,2-a]pyridin-7-ylmethyl)-4-{1-[(2-methyl-2H-indazol-4-yl)carbonyl]piperidin-4-yl}benzamide]	6.19 nM	
CCC1CCCCN1C(=O)C(=O)N1CCC(c2ccc(C(=O)NCc3ccn4ccnc4c3)cc2)CC1 (stereo not drawn) [Example 1117, 4-{1-[(2-ethylpiperidin-1-yl)(oxo)acetyl]piperidin-4-yl}-N-(imidazo[1,2-a]pyridin-7-ylmethyl)benzamide]	65.7 nM	
Cn1cc2ccc(C(=O)N3CCC(c4ccc(C(=O)NCc5ccn6ccnc6c5)cc4)CC3)cc2n1 [Example 1118, N-(imidazo[1,2-a]pyridin-7-ylmethyl)-4-{1-[(2-methyl-2H-indazol-6-yl)carbonyl]piperidin-4-yl}benzamide]	4.18 nM	
Cn1ncc2c(C(=O)N3CCC(c4ccc(C(=O)NCc5ccn6ccnc6c5)cc4)CC3)cccc21 [Example 1119, N-(imidazo[1,2-a]pyridin-7-ylmethyl)-4-{1-[(1-methyl-1H-indazol-4-yl)carbonyl]piperidin-4-yl}benzamide]	6.67 nM	
O=C(NCc1ccn2ccnc2c1)c1ccc(C2CCN(C(=O)c3ccoc3C(F)(F)F)CC2)cc1 [Example 1120, N-(imidazo[1,2-a]pyridin-7-ylmethyl)-4-(1-{[2-(trifluoromethyl)furan-3-yl]carbonyl}piperidin-4-yl)benzamide]	2.37 nM	
O=C(NCc1ccn2ccnc2c1)Nc1ccc(C2CCN(C(=O)c3cnc(C4CC4)s3)CC2)cc1 [Example 1121, 1-(4-{1-[(2-cyclopropyl-1,3-thiazol-5-yl)carbonyl]piperidin-4-yl}phenyl)-3-(imidazo[1,2-a]pyridin-7-ylmethyl)urea]	8.42 nM	
O=C(NCc1ccn2ccnc2c1)Nc1ccc(C2CCN(C(=O)c3ccc4scnc4c3)CC2)cc1 [Example 1122, 1-{4-[1-(1,3-benzothiazol-5-ylcarbonyl)piperidin-4-yl]phenyl}-3-(imidazo[1,2-a]pyridin-7-ylmethyl)urea]	9.96 nM	
Cn1ncc2ccc(C(=O)N3CCC(c4ccc(NC(=O)NCc5ccn6ccnc6c5)cc4)CC3)cc21 [Example 1123, 1-(imidazo[1,2-a]pyridin-7-ylmethyl)-3-(4-{1-[(1-methyl-1H-indazol-6-yl)carbonyl]piperidin-4-yl}phenyl)urea]	7.11 nM	
Cc1nn(C)c(C(=O)N2CCC(c3ccc(NC(=O)NCc4ccn5ccnc5c4)cc3)CC2)c1Cl [Example 1124, 1-(4-{1-[(4-chloro-1,3-dimethyl-1H-pyrazol-5-yl)carbonyl]piperidin-4-yl}phenyl)-3-(imidazo[1,2-a]pyridin-7-ylmethyl)urea]	0.344 nM	
CCc1ccc(C(=O)N2CCC(c3ccc(NC(=O)NCc4ccn5ccnc5c4)cc3)CC2)nc1 [Example 1125, 1-(4-{1-[(5-ethylpyridin-2-yl)carbonyl]piperidin-4-yl}phenyl)-3-(imidazo[1,2-a]pyridin-7-ylmethyl)urea]	4.77 nM	
N#Cc1cnc(C(=O)N2CCC(c3ccc(NC(=O)NCc4ccn5ccnc5c4)cc3)CC2)c(Cl)c1 [Example 1126, 1-(4-{1-[(3-chloro-5-cyanopyridin-2-yl)carbonyl]piperidin-4-yl}phenyl)-3-(imidazo[1,2-a]pyridin-7-ylmethyl)urea]	2.36 nM	
CC1CC(C#N)(C(=O)N2CCC(c3ccc(NC(=O)NCc4ccn5ccnc5c4)cc3)CC2)C1 (stereo not drawn) [Example 1127, 1-(4-{1-[(1-cyano-3-methylcyclobutyl)carbonyl]piperidin-4-yl}phenyl)-3-(imidazo[1,2-a]pyridin-7-ylmethyl)urea]	2.99 nM	
CCc1c(C(=O)N2CCC(c3ccc(NC(=O)NCc4ccn5ccnc5c4)cc3)CC2)nnn1CC [Example 1128, 1-(4-{1-[(1,5-diethyl-1H-1,2,3-triazol-4-yl)carbonyl]piperidin-4-yl}phenyl)-3-(imidazo[1,2-a]pyridin-7-ylmethyl)urea]	6.05 nM	
O=C(NCc1ccn2ccnc2c1)Nc1ccc(C2CCN(C(=O)c3cc4occc4s3)CC2)cc1 [Example 1129, 1-(imidazo[1,2-a]pyridin-7-ylmethyl)-3-{4-[1-(thieno[3,2-b]furan-5-ylcarbonyl)piperidin-4-yl]phenyl}urea]	8.05 nM	
